# According to US6096725A, “Methods of using αGal oligosaccharides as immune system targeting agents” (Neose Technologies, Inc., priority 1997, dated 2000):
# Read-outs that look alike come from different tables or passages of the source.
# Columns and labels:
# [1] = tested on: anti-αGal IgG and IgM antibodies; assay: In vitro mouse laminin ELISA: soluble oligosaccharides as neutralizers of anti-αGal antibodies; assay type: binding; conditions: serum pre-incubated with oligosaccharide 1 hour 37° C.; result in words
# Excerpt: In vitro laminin ELISA evaluation of αGal oligosaccharides as neutralizers of anti-αGal antibodies. Mouse laminin is a basement membrane glycoprotein that expresses 50-70 oligosaccharides terminating in Galα1-3Gal, i.e., the αGal motif (Arumugham et al., 1986, Biochem. Biophys. Aeta 883:112). In this assay, immobilization of mouse laminin on microtiter plates serves as a capture ligand for anti-αGal antibodies. […] The example provides a method by which to determine the ability of αGal oligosaccharides and pharmaceutically acceptable derivative of the invention to bind to anti-αGal antibodies and to thereby remove these antibodies from the serum, neutralize anti-αGal antibodies, and/or target anti-αGal directed complement-mediated lytic attack to specific tissue or cell types. The example also provides a method by which the effectiveness of the methods of the invention can be evaluated and dosages determined.
# Sera were mixed with serial dilutions of αGal oligosaccharides (αGal-CHO) at 37° C. for 1 hour, then added to mouse laminin-coated microtiter plates and incubated for 1 hour to allow binding. The microtiter plates were coated with 20 μg/mL mouse laminin in 50 mM NaHCO3 buffer, pH 9.5 at 4° C. overnight, blocked with SuperBlock solution (Pierce) for 2 hours, and then washed 3 times with SuperBlock solution. After washing excess serum away, bound IgG and IgM was measured by adding goat anti-human IgG (or IgM) conjugated to alkaline phosphatase and incubating for 1 hour, washing, and adding substrate (pNPP).
# anti-αGal antibody = assay: In vivo blood serum analysis: serum anti-αGal antibody neutralizing capacity in baboons; set-up: species or system baboon; conditions: monovalent oligosaccharide
# Excerpt: Pharmokinetics of αGal trisaccharides and αGal pentasaccharides in baboons. This example presents a study of the pharmokinetic profile and serum anti-αGal antibody neutralizing capacity in baboons of αGal trisaccharides and αGal pentasaccharides and previews the compounds' suitability for use in the prevention of hyperacute rejection of porcine organs xenotransplanted into baboons.
# Three Baboons were outfitted with indwelling venous and arterial catheters to the femoral vessels, and held in place with the aid of a jacket. Oligosaccharides were administered through the catheter in a 15 minute continuous infusion.
# [2] = tested on: hyperacute rejection (HAR) of porcine heart xenografted to the neck of a baboon; assay type: in vivo; conditions: for Onset of IgG, IgM and complement (C3) deposition at the endothelial surface: immunofluorescence
# Excerpt: Primate model for testing and application of αGal oligosaccharides and dosages thereof. Due to the many similarities between human and baboon immune systems (Neubauer et al., 1981, J. Immunogenetics, 8:433-442; Garver et al., 1980, Cytogenetics & Cell Genetics, 27:238-245; Brodsky et al., 1982, Immunogenetics, 155:151-166; Hammer, C., in Hardy, M. A. (ed.), Xenograft 25, 115-123 (Elsevier, N.Y., 1989); Stark, J. H., et al., Transplantation, 30 52(6):1072-1078 (December 1991); Hammer, C., in Cooper, D. K. C., et al. (eds.), Xenotransplantation, 429-438 (Springer-Verlag 1991)), and because of the large size of baboons, these animals are convenient experimental model recipients of pig organs. These non-human primates also express anti-pig antibodies, and reject pig organs hyperacutely (Lexer et al., 1986, J. Heart Transplant, 4:411-418; Ye, Y., Cooper, D. K. C., in Cooper, D. K. C., et al. (eds.), Xenotransplantation,389-393 (Springer-Verlag 1991); Cooper et al., 1991, J. Heart Transplant, 7:238-246, 1988; Platt et al., 1991, Transplantation, 52(2):214-220). A normal porcine heart was transplanted into the neck of a normal baboon. αGal pentasaccharide was infused (i.v.) to establish and maintain blood oligosaccharide levels predicted to inhibit HAR until infusate was exhausted (See Table 2). The ability of i.v. infused αGal pentasaccharide to block hyperacute rejection (HAR) of porcine heart xenografted to the neck of a baboon was determined and blood levels of αGal oligosaccharide, anti-αGal antibodies, and serum or plasma cytotoxicity toward pig kidney and mouse endothelial cells was monitored and correlated with the onset of HAR.
# The heart was excised from the pig donor and transplanted in the neck of the baboon recipient using techniques essentially as described by Cooper et al., 1993, Transplantation, 56:769-777.
# The two xenotransplant baboons were outfitted with an indwelling catheter to the femoral vein to infuse compound and a catheter to the femoral artery for blood sampling. Following the transplant procedure, but just prior to providing circulatory access to the xenograft, the oligosaccharide was administered by i.v. pump through the catheter in a 15 min loading dose, followed by continuous 4 hour infusion to achieve 2.5 mM blood concentration (as determined by calculations presented in Table 2). […] Blood specimens collected for plasma were immediately centrifuged and the plasma withdrawn and stored frozen at -20° C. Blood specimens collected for serum were clotted at 4° C. overnight and the withdrawn serum frozen at -20° C. The αGal pentasaccharide was prepared according to the enzymatic methods set forth in example 6.2 and stored as a dry, white, solid powder. The oligosaccharide was dissolved in 250 mL sterile infusion grade saline to a concentration of 0.154 g/mL, or 177 mM. Induction anesthesia was with ketamine hydrochloride 5 mg/kg/body weight in and 0.5 mg/kg of xylazine iv. Intravenous fluid of approximately 20 ml/kg body weight was given during the course of the operative procedure through either a peripheral or central vein. Atropine 0.5 mg/kg was given iv. The larynx was sprayed with 2% lidocaine. Endotracheal intubation was carried out. The endotracheal tube was taped to the maxilla. The pig or baboon was ventilated with a Harvard positive pressure ventilator. Anesthesia was maintained with nitrous oxide 2 L/min and oxygen 1 L/min and 0.2%-1.2% halothane, at a respiratory rate of approximately 10 to 20 breaths per minute depending on the size of the animal. Tidal volume (approximately 20-24 ml/kg) was also adjusted to suit the size of the animal, and the ventilatory pressure was adjusted to approximately […]. Blood gases were checked, and ventilation adjusted as necessary. Arterial pressure was monitored in the recipient baboon by intermittent automatic cuff recordings. […]
smiles,measurement,setting,value
"CC(=O)N[C@H]1[C@H](O[C@H]2[C@@H](O)[C@@H](CO)O[C@@H](O[C@H]3[C@H](O)[C@@H](O)C(O)O[C@@H]3CO)[C@@H]2O)O[C@H](CO)[C@@H](O[C@@H]2O[C@H](CO)[C@H](O)[C@H](O[C@H]3O[C@H](CO)[C@H](O)[C@H](O)[C@H]3O)[C@H]2O)[C@@H]1O (stereo partly drawn) [αGal pentasaccharide, Galα1-3Galβ1-4GlcNAcβ1-3Galβ1-4Glc]",Inhibition of anti-αGal IgG and IgM antibody binding to immobilized mouse laminin,[1],slightly better inhibitor of both IgG and IgM binding to laminin than αGal disaccharide
same,Minimal serum (circulating) concentration required to inhibit hyperacute rejection / be efficacious in vivo,anti-αGal antibody,≥ 1 mM
same,"Onset of IgG, IgM and complement (C3) deposition at the endothelial surface",[2]; first baboon,1.5 h
same,Alteration in blood chemistry,[2]; in vivo,increase in creatinine phosphokinase
same,Hematology results,[2]; in vivo,unremarkable
same,Xenograft histology,"[2]; initial 3 hours of infusion, data not shown",Essentially normal histology
same,"Onset of IgG, IgM and complement (C3) deposition at the endothelial surface",[2]; second baboon,3 h
same,Xenograft heart beat during infusion,"[2]; two baboons, four hour infusion, result in words",an even beat was maintained for the duration of the four hour oligosaccharide infusion
same,Time of xenograft excision after cessation of the 4 hour infusion,"[2]; two baboons, untreated pig hearts rejected in 5-10 minutes",more than 1 hour
